In brackets after ≈: the same amount, converted by molar mass.
test system: not given; test: not given; conditions: not given

First: CC(C)OCC1(C(F)(F)F)c2cc(C#N)ccc2Nc2ncc(Br)cc21 (stereo not drawn) [Compound 15, 3-bromo-7-cyano-5-trifluoromethyl-5-isopropoxymethyl-5,10-dihydrobenzo[b][1,8]naphthyridine]
Second: CC(C)OCC1(C(F)(F)F)c2cc(C#N)ccc2Nc2ncc(C#N)cc21 (stereo not drawn) [Compound 17, 3,7-dicyano-5-trifluoromethyl-5-isopropoxymethyl-5,10-dihydrobenzo[b][1,8]naphthyridine]
The melting point of the first is lower: 76 to 77 °C for the first, 226 to 227 °C for the second.

First: CC(C)OCC1(C(F)(F)F)c2cc(F)ccc2Nc2ncc(Cl)cc21 (stereo not drawn) [Compound 6, 3-Chloro-7-fluoro-5-isopropoxymethyl-5-trifluoromethyl-5,10-dihydro-benzo[b][1,8]naphthyridine]
Second: CC(C)OCC1(C(F)(F)F)c2cc(Cl)ccc2Nc2ncc(Cl)cc21 (stereo not drawn) [Compound 9, 3,7-Dichloro-5-isopropoxymethyl-5-trifluoromethyl-5,10-dihydro-benzo[b][1,8]naphthyridine]
The melting point of the first is lower: 96 to 97 °C for the first, 137 to 138 °C for the second.

`CC(C)OCC1(C(F)(F)F)c2cc(F)ccc2Nc2c1cc(Cl)c[n+]2[O-]` (stereo not drawn) [Compound 7, 3-Chloro-7-fluoro-5-isopropoxymethyl-5-trifluoromethyl-5,10-dihydro-benzo[b][1,8]naphthyridine 1-oxide] gave a melting point of 165 to 166 °C.

test system: HIV-1 (RF); test: HIV RNA assay: microplate based compound evaluation in HIV-1 infected MT-2 cells; type: cell-based; conditions: Human immunodeficiency virus 1, MT2, 72 h; HIV-1 (RF) infected MT-2 cells, 3 days culture; value used to standardize the virus inoculum; read-out: IC90 (concentration of compound required to reduce the HIV RNA level by 90%)
Procedure: DNA Plasmids and in Vitro RNA Transcripts:
Plasmid pDAB 72 containing both gag and pol sequences of BH10 (bp 113-1816) cloned into PTZ 19R was prepared according to Erickson-Viitanen et al. AIDS Research and Human Retroviruses 1989, 5, 577. The plasmid was linearized with Bam HI prior to the generation of in vitro RNA transcripts using the Riboprobe Gemini system II kit (Promega) with T7 RNA polymerase. Synthesized RNA was purified by treatment with RNase free DNAse (Promega), phenol-chloroform extraction, and ethanol precipitation. RNA transcripts were dissolved in water, and stored at −70° C. The concentration of RNA was determined from the A260.
Biotinylated capture probes were purified by HPLC after synthesis on an Applied Biosystems (Foster City, Calif.) DNA synthesizer by addition of biotin to the 5′ terminal end of the oligonucleotide, using the biotin-phosphoramidite reagent of Cocuzza, Tet. Lett. 1989, 30, 6287. […]
MT-2 and MT-4 cells were maintained in RPMI 1640 supplemented with 5% fetal calf serum (FCS) for MT-2 cells or 10% FCS for MT-4 cells, 2 mM L-glutamine and 50 μg/mL gentamycin, all from Gibco. […] Infectious titers of HIV-1(RF) stocks were 1-3×10^7 PFU (plaque forming units)/mL as measured by plaque assay on MT-2 cells (see below). […]

Compound `Nc1ccn([C@H]2CC[C@@H](CO)O2)c(=O)n1` [ddC, 2′,3′-dideoxycytidine] has an IC90 of 0.2 µg/mL (≈ 0.947 µM).
